Test results as given in patent US11142525B2 (Pfizer Inc., priority 2018, dated 2021).

What was measured:
[1] = molecular target: human full-length recombinant HPK1 (Homo sapiens (Human), UniProt Q92918); test: HPK1 biochemical enzyme assay, microfluidic mobility shift assay (MSA); details: HPK1 mobility shift assay; read-out: HPK1 Enzyme Assay_Ki
[2] = test system: phospho-SLP-76 (Ser376) in Jurkat cells; test: Phospho-SLP-76 (Ser376) Homogeneous Time Resolved Fluorescence (HTRF) assay in Jurkat cells; format: cell-based; details: Homo sapiens, Phospho-SLP-76 (Ser376) HTRF, anti-CD3 stimulation, read-out: SLP76 Assay_IC50
Summary of the method: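 Jurkat cells pre-treated 30 min with compounds (10 μM to 0.1 nM, 11-point, 0.1% DMSO), then stimulated with 200 μg/mL F(ab)2-complexed anti-CD3 (UCHT1) for 15 min at 37 °C. Lysate phospho-SLP-76 detected by HTRF after overnight antibody incubation; IC50 from four-parameter fit.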

Chain of human full-length recombinant HPK1 (Q92918 whole entry): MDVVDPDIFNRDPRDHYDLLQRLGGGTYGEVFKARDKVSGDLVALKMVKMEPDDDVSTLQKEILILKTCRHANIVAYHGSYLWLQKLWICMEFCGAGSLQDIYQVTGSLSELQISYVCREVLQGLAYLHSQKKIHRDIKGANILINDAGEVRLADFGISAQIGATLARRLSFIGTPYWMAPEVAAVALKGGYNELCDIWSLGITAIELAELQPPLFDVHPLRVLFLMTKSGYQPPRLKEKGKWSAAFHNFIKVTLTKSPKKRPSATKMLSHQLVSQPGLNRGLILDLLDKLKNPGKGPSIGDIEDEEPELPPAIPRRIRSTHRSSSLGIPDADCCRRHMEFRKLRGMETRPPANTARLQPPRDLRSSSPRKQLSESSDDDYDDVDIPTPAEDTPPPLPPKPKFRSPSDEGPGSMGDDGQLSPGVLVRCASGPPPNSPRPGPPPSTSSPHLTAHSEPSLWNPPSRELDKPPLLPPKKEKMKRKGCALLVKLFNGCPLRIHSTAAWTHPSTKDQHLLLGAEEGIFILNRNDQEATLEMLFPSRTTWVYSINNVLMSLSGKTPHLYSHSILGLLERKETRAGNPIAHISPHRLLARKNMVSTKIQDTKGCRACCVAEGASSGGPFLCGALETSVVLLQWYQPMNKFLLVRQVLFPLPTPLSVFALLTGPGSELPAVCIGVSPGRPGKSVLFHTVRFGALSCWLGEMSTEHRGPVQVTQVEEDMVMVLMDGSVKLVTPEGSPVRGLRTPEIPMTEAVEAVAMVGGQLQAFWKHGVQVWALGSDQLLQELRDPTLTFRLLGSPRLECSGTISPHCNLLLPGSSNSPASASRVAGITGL

| Compound | Ki [1] [nM] | IC50 [2] [nM] |
| --- | --- | --- |
| CCN(c1cc2c(c(CN)n1)CN(c1cccc(-c3nncn3C(C)C)n1)C2=O)C(C)C [Example 145, 4-(aminomethyl)-6-[ethyl(propan-2-yl)amino]-2-{6-[4-(propan-2-yl)-4H-1,2,4-triazol-3-yl]pyridin-2-yl}-2,3-dihydro-1H-pyrrolo[3,4-c]pyridin-1-one] | 0.47 | 61 |
| CCC(CC)n1cnnc1-c1cccc(N2Cc3c(cc(N4CCCC4(C)C)nc3CN)C2=O)n1 [Example 151] | 0.1 | 14 |
| CCn1c(C)nnc1-c1cccc(N2Cc3c(cc(N4CCCC4(C)C)nc3CN)C2=O)n1 [Example 154] | 0.15 | 151 |
| CCCn1c(C)nnc1-c1cccc(N2Cc3c(cc(N4CCCC4(C)C)nc3CN)C2=O)n1 [Example 155] | 0.16 | 55 |
| Cc1nnc(-c2cccc(N3Cc4c(cc(N5CCC[C@H]5C)nc4CN)C3=O)n2)n1C(C)C [Example 156] | 0.19 | 104 |
| CCn1c(C)nnc1-c1cccc(N2Cc3c(cc(N4CCC[C@@H]4C)nc3CN)C2=O)n1 [Example 157] | 0.23 | 85 |
| CCCn1c(C)nnc1-c1cccc(N2Cc3c(cc(N(C)CC)nc3CN)C2=O)n1 [Example 161] | 0.68 | 217 |
| Cc1nnc(-c2cccc(N3Cc4c(cc(N5CCC[C@@H]5C)nc4CN)C3=O)n2)n1C(C)C [Example 162] | 0.76 | 136 |
| CCN(CC)c1cc2c(c(CN)n1)CN(c1cccc(-c3nnc(C)n3CC)n1)C2=O [Example 163] | 0.88 | 196 |
| Cc1nnc(-c2cccc(N3Cc4c(cc(N(C)C(C)C)nc4CN)C3=O)n2)n1C(C)C [Example 165] | 0.28 | 114 |
| CCC(CC)n1cnnc1-c1cccc(N2Cc3c(cc(N(CC)C(C)C)nc3CN)C2=O)n1 [Example 166] | 0.5 | 104 |
| CCn1c(C)nnc1-c1cccc(N2Cc3c(cc(N4[C@H](C)CC[C@H]4C)nc3CN)C2=O)n1 [Example 168] | 0.76 | 300 |
| CCCn1c(C)nnc1-c1cccc(N2Cc3c(cc(N(CC)CC)nc3CN)C2=O)n1 [Example 170] | 0.36 | 264 |
| CCCn1c(C)nnc1-c1cccc(N2Cc3c(cc(N(C)C(C)C)nc3CN)C2=O)n1 [Example 172] | 0.55 | 85 |
| CC[C@H](C)n1cnnc1-c1cccc(N2Cc3c(cc(N(C)CC)nc3CNC)C2=O)n1 [Example 173] | 0.06 | 43 |
| CN(C)c1cc2c(c(CN)n1)CN(c1cccc(N3C(=O)OC[C@@H]3CF)n1)C2=O [Example 174] | 0.37 | 207 |

Other lines, results leading:

| Ki [1] [nM] | IC50 [2] [nM] | Compound |
| --- | --- | --- |
| < 0.05 | 15 | CCC(CC)n1cnnc1-c1cccc(N2Cc3c(cc(N4CCC[C@H]4C)nc3CNC)C2=O)n1 [Example 144, 4-[(methylamino)methyl]-6-[(2R)-2-methylpyrrolidin-1-yl]-2-{6-[4-(pentan-3-yl)-4H-1,2,4-triazol-3-yl]pyridin-2-yl}-2,3-dihydro-1H-pyrrolo[3,4-c]pyridin-1-one] |
| 0.91 | 106 | CCCn1cnnc1-c1cccc(N2Cc3c(cc(N(CC)C(C)C)nc3CN)C2=O)n1 [Example 146, 4-(aminomethyl)-6-[ethyl(propan-2-yl)amino]-2-[6-(4-propyl-4H-1,2,4-triazol-3-yl)pyridin-2-yl]-2,3-dihydro-1H-pyrrolo[3,4-c]pyridin-1-one] |
| 0.06 | 33 | CCC(CC)n1cnnc1-c1cccc(N2Cc3c(cc(N(C)C(C)C)nc3CN)C2=O)n1 [Example 150] |
| 0.12 | 46 | CCC(CC)n1cnnc1-c1cccc(N2Cc3c(cc(N4CCC[C@@H]4C)nc3CN)C2=O)n1 [Example 152] |
| 0.14 | 65 | CCC(CC)n1cnnc1-c1cccc(N2Cc3c(cc(N(C)CC)nc3CN)C2=O)n1 [Example 153] |
| 0.38 | 83 | CCn1c(C)nnc1-c1cccc(N2Cc3c(cc(N(C)C(C)C)nc3CN)C2=O)n1 [Example 158] |
| 0.48 | 272 | CCN(C)c1cc2c(c(CN)n1)CN(c1cccc(-c3nnc(C)n3C(C)C)n1)C2=O [Example 160] |
| 0.7 | 391 | CCN(c1cc2c(c(CN)n1)CN(c1cccc(-c3nnc(C)n3CC)n1)C2=O)C(C)C [Example 167] |
| 0.95 | 179 | Cc1nnc(-c2cccc(N3Cc4c(cc(N5[C@H](C)CC[C@H]5C)nc4CN)C3=O)n2)n1C(C)C [Example 169] |
| 0.34 | 180 | CCN(C)c1cc2c(c(CN)n1)CN(c1cccc(-c3nnc(C)n3CC)n1)C2=O [Example 171] |
| 0.94 | 185 | CCCn1c(CC)nnc1-c1cccc(N2Cc3c(cc(N4CCC[C@H]4C)nc3CNC)C2=O)n1 [Example 175] |
| 0.26 | 152 | CNCc1nc(N(C)C)cc2c1CN(c1cccc(-c3nncn3CC(C)C)n1)C2=O [Example 177] |
| 0.79 | 136 | CCc1nnc(-c2cccc(N3Cc4c(cc(N5CCC[C@H]5C)nc4CN)C3=O)n2)n1CC [Example 185] |
